Measured values as given in patent US10760052B2, “Method of inhibiting tau phosphorylation” (priority 2012, dated 2020).
Like-named read-outs stand apart in the source and are kept apart here.

Biological target: T1, mu opiate receptor (MOR) (Rattus norvegicus, UniProt P33535)
T1 construct: from tissue; host or cells: striatum (membrane preparation)
Type: biochemical
Conditions: for Concentration of FLNA-Binding Compound as Agonist 0.1 μM / Concentration of FLNA-Binding Compound as Agonist 1 μM / Concentration of FLNA-Binding Compound as Agonist 1 μM + BFNA: [35S]GTPγS binding to Gαo in striatal membranes; for Concentration of FLNA-Binding Compound as Agonist 0.1 μM: compound 0.1 μM; for Concentration of FLNA-Binding Compound as Agonist 1 μM: compound 1 μM; for Concentration of FLNA-Binding Compound as Agonist 1 μM + BFNA: compound 1 μM plus 1 μM β-funaltrexamine (MOR antagonist)

[1] = 0.1 μM compound, striatal membranes, Series C-2
[2] = 1 μM compound + 1 μM β-FNA (selective MOR antagonist), Series C-2
[3] = 1 μM compound, striatal membranes, Series C-2

T1 sequence (P33535 whole entry): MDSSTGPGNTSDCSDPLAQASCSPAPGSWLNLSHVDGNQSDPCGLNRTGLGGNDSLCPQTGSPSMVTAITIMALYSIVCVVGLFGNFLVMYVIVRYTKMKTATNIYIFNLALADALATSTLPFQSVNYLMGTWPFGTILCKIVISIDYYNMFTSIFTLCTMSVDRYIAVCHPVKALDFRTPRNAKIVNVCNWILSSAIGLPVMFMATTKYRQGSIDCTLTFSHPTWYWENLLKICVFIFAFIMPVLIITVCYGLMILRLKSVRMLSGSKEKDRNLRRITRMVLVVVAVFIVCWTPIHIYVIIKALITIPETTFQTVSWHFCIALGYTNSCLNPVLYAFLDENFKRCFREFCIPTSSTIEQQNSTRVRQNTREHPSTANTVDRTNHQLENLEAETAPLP

Structure (SMILES)	% DAMGO (0.1 μM)	% DAMGO (1 μM)	% DAMGO + BFNA	Concentration of FLNA-Binding Compound as Agonist 0.1 μM	Concentration of FLNA-Binding Compound as Agonist 1 μM	Concentration of FLNA-Binding Compound as Agonist 1 μM + BFNA	[35S]GTPγS binding, FLNA-Binding Compound as Agonist at 0.1 μM	[35S]GTPγS binding, FLNA-Binding Compound as Agonist at 1 μM	[35S]GTPγS binding, FLNA-Binding Compound as Agonist at 1 μM + BFNA	[35S]GTPγS binding, FLNA-Binding Compound as Agonist at 0.1 μM [1]	[35S]GTPγS binding, FLNA-Binding Compound as Agonist at 1 μM + BFNA [2]	[35S]GTPγS binding, FLNA-Binding Compound as Agonist at 1 μM [3]
O=S(=O)(c1ccc(Br)cc1F)N1CCC2(CC1)OCCN2S(=O)(=O)c1ccc(Br)cc1F [Compound C0078]	82.4%	106.4%	359.4%	138.1%	236.6%	170.7%	–	–	–	–	–	–
CC(=O)c1ccc(S(=O)(=O)N2CCC3(CC2)OCC(CCCCN(C)C)N3S(=O)(=O)c2ccc(C(C)=O)cc2)cc1 (stereo not drawn) [Compound C0080M]	112.1%	92.4%	351.8%	187.9%	205.4%	167.1%	–	–	–	–	–	–
CC(=O)c1ccc(S(=O)(=O)N2CCC3(CC2)NCC(=O)N3Cc2ccccc2)cc1 [Compound C0082M]	113.7%	107.8%	181.1%	228.1%	338.4%	97.6%	–	–	–	–	–	–
CC(=O)c1ccc(S(=O)(=O)N2CCC3(CC2)NC(=O)C(Cc2cnc[nH]2)N3S(=O)(=O)c2ccc(C(C)=O)cc2)cc1 (stereo not drawn) [Compound C0084M]	97.3%	114.9%	280.4%	163.1%	255.5%	133.2%	–	–	–	–	–	–
CC(=O)c1ccc(S(=O)(=O)N2CCC3(CC2)NC(=O)CN3Cc2ccccc2)cc1 [Compound C0085M]	105.5%	78.4%	112.6%	211.6%	246.2%	43.7%	–	–	–	–	–	–
CC(=O)c1ccc(S(=O)(=O)N2CC(=O)NC23CCNCC3)cc1 [Compound C0086M]	117.5%	104.9%	692.3%	–	–	–	206.8%	265.3%	152.3%	–	–	–
COc1ccc(S(=O)(=O)N2CCOC23CCN(C)CC3)cc1 [Compound C0088M]	160.5%	161.7%	513.3%	–	–	–	–	–	–	276.3%	177.1%	355.3%
CCN1CCC2(CC1)OCCN2S(=O)(=O)c1ccc(OC)cc1 [Compound C0089M]	136.3%	134.4%	237.4%	–	–	–	–	–	–	234.5%	81.9%	295.3%
COc1ccc(S(=O)(=O)N2CCOC23CCN(CC2CC2)CC3)cc1 [Compound C0090M]	137.7%	155.2%	118.8%	–	–	–	237.0%	341.0%	41.0%	–	–	–
C=CCN1CCC2(CC1)OCCN2S(=O)(=O)c1ccc(OC)cc1 [Compound C0091M]	118.1%	108.5%	367.3%	–	–	–	–	–	–	207.9%	80.8%	274.4%
CC(=O)c1ccc(S(=O)(=O)N2CCOC23CCN(C)CC3)cc1 [Compound C0093M]	81.3%	96.4%	127.5%	–	–	–	–	–	–	140.0%	44.0%	211.8%
CCN1CCC2(CC1)OCCN2S(=O)(=O)c1ccc(C(C)=O)cc1 [Compound C0094M]	100.2%	119.9%	334.2%	–	–	–	–	–	–	172.5%	115.3%	263.5%
CC(=O)c1ccc(S(=O)(=O)N2CCOC23CCN(CC2CC2)CC3)cc1 [Compound C0095M]	107.4%	88.8%	489.5%	–	–	–	–	–	–	189.1%	107.7%	224.6%
C=CCN1CCC2(CC1)OCCN2S(=O)(=O)c1ccc(C(C)=O)cc1 [Compound C0096M]	105.9%	130.0%	577.7%	–	–	–	–	–	–	186.4%	127.1%	328.9%
CCOC(=O)CN1CCC2(CC1)OCCN2S(=O)(=O)c1ccc(C(C)=O)cc1 [Compound C0099M]	93.8%	88.0%	241.5%	–	–	–	–	–	–	157.2%	114.7%	195.7%
CC(=O)c1ccc(S(=O)(=O)N2CCOC23CCN(CC(=O)O)CC3)cc1 [Compound C0100M]	103.6%	110.6%	411.8%	–	–	–	–	–	–	173.6%	195.6%	245.9%
CCCCN1CCC2(CC1)OCCN2S(=O)(=O)c1ccc(C(C)=O)cc1 [Compound C0101M]	82.5%	123.4%	368.0%	–	–	–	–	–	–	138.2%	174.8%	274.3%
CCCCN1CCC2(CC1)OCCN2S(=O)(=O)c1ccc(OC)cc1 [Compound C0102M]	78.6%	122.4%	316.6%	–	–	–	–	–	–	131.8%	150.4%	272.0%
CN1CCC2(CC1)NC(=O)CN2Cc1ccccc1 [Compound C0104M]	99.5%	96.3%	296.5%	–	–	–	–	–	–	188.2%	143.8%	238.9%
CN1CCC2(CC1)NCC(=O)N2Cc1ccccc1 [Compound C0105M]	104.7%	88.8%	150.7%	–	–	–	–	–	–	198.1%	73.1%	220.3%
CN1CCC2(CC1)OCCN2S(=O)(=O)c1ccc(S(C)(=O)=O)cc1 [Compound C0106M]	102.5%	108.3%	246.7%	–	–	–	–	–	–	171.8%	117.2%	240.7%
CC(=O)c1ccc(S(=O)(=O)N2CC(CN(C)C)OC23CCN(C)CC3)cc1 (stereo not drawn) [Compound C0108M]	108.7%	104.1%	158.6%	–	–	–	–	–	–	205.6%	76.9%	258.5%
